According to patent publication US20230257350A1, “COMPOUNDS AND METHODS OF PROMOTING OLIGODENDROCYTE PRECURSOR DIFFERENTIATION” (The Cleveland Clinic Foundation, priority 2020, published 2023):
One block for each compound: values may come before it.

Legend:
[1] = test system: oligodendrocyte progenitor cells (OPC); assay: 96-well OPC screening platform: oligodendrocyte generation from primary OPCs; type: cell-based, mouse; conditions: for EC50: Mus musculus, Oligodendrocyte progenitor cell
Experimental: 1) an optimized method to produce primary culture of highly pure mouse oligodendrocyte progenitor cells (OPC); and
2) an algorithm to identify and quantify oligodendrocytes in 96-well format.
(§1) Briefly, the high-throughput small molecule screen included a primary screening where small drug-like organic compounds ([…]) are added to cells seeded on a 96-well plate an incubated. The cells are then visually screened for oligodendrocyte precursor morphology changes. In a secondary screening, differentiation induced by selected compounds was further validated by fluorescence microscopy. Increased fluorescence in treated oligodendrocyte cells generated from a PIp-EGFP transgenic mouse was indicative of cell maturation. Further oligodendrocyte precursor maturation in response to selected compounds was assessed by induction of myelin protein expression as determined by immunocytochemistry and western blot.
Using the 96-well OPC-screening platform, a CNS-bias library of 20,000 drug-like small molecule compounds (Cambridge Co., San Diego, Calif.) was screened, using DMSO as a negative control and T3 (triiodothyronine) as a positive control. Initial screening was at 10 μM, and 390 primary hits were identified. Further testing confirmed that 57 compounds produced at least 50% response of T3.

OPCs (PLP-EGFP) = assay: Immunostaining of oligodendrocyte markers PLP and MBP in treated OPCs; type: cell-based, mouse; conditions: 4 days treatment
Experimental: as §1
Finally, similar activation of oligodendrocyte markers was observed when wild-type OPCs were treated with the “hit” compounds, eliminating the possibility that expression of the EGFP construct affected the results.

MTT assay (viability) = type: cell-based; conditions: up to 30 μM
[2] = test system: cuprizone mouse model of demyelination/remyelination; assay: Cuprizone/rapamycin demyelination and remyelination model; type: in vivo, mice; conditions: i.p. daily 6 weeks, 10 mg/kg, vs control
Description: 2016; 283(Pt A): 330-340, which is incorporated herein by reference in its entirety. […] At the end of the treatment period, mice were perfused and different tissues analyzed for remyelination. In cortex and hippocampus, PLP antibody staining was used to assess remyelination. In corpus callosum, the number of myelinated axons in semi-thin (1 μm) Epon sections was quantified. […] This in vivo animal data further validates a strategy of using cell-based phenotypic screening to identify remyelination compounds.

Solubility = type: physicochemical
[3] = Preliminary pharmacokinetic analysis, i.p. injection, LC/MS/MS of plasma and brain; type: in vivo; conditions: i.p. 10 mg/kg, mice

EC50 ([1]; Table 2, OPC differentiation): 0.042 µM
Structure (SMILES): Cc1cc(Cl)cc(C)c1OCCCCN1CCC[C@H](C)C1 [CN329]

EC50 [1]: 0.04 µM
Structure (SMILES): CC1CCC(N2CCN(Cc3cccc(Br)c3)CC2)CC1 (centres unmarked) [CN007]

EC50 ([1]; Table 1, OPC differentiation): 0.193 µM
Structure (SMILES): Cc1cc(Cl)ccc1OCCOCCN1CCC(C)CC1 [CN918]

EC50 ([1]; Table 1, OPC differentiation): 0.54 µM
Structure (SMILES): Cc1cc(Cl)cc(Cl)c1OCCOCCN1CCN(C)CC1 [CN265]

EC50 ([1]; Table 2, OPC differentiation): 0.078 µM
Structure (SMILES): Cc1cc(Cl)cc(C)c1OCCCCN1CCCCC1 [CN478]

EC50 ([1]; Table 2, OPC differentiation): 0.27 µM
Structure (SMILES): Cc1cc(Cl)cc(C)c1OCCCCN1CCOCC1 [CN644]

EC50 ([1]; Table 1, OPC differentiation): 0.165 µM
Structure (SMILES): CCc1cc(OCCOCCN2CCC(C)CC2)ccc1Cl [CN049]

EC50 ([1]; Table 1, OPC differentiation): 0.04 µM
solubility (Solubility): > 500 µM
Kp ([3]; C57BU6J, mouse, ip, brain homogenate vs. plasma, read-out: brain/plasma ratio): 0.8
time of peak concentration following injection [3]: ~2 h
Structure (SMILES): CC1CCN(CCOCCOc2c(Cl)cc(Cl)cc2Cl)CC1 [CN045]
co-labeling of EGFP+ cells by PLP and MBP antibodies (OPCs (PLP-EGFP)): All EGFP+ cells were co-labeled by PLP and MBP antibodies
viability (MTT assay (viability)): > 80%
increase in the percentage of oligodendrocytes compared with DMSO controls ([1]; dose-response, FIG. 3B): ~4 fold
efficacy compared with benztropine, clemastine or T3 ([1]; same OPC assay, multiple concentrations, FIG. 2): almost twice the efficacy
remyelination in corpus callosum (number of myelinated axons) ([2]; p<0.01): significantly increased remyelination
remyelination in cortex (PLP antibody staining) ([2]; p<0.01): significantly increased remyelination
remyelination in hippocampus (PLP antibody staining) ([2]; p<0.05): significantly increased remyelination

EC50 ([1]; Table 1, OPC differentiation): 0.2 µM
Structure (SMILES): Cc1ccc(OCCOCCN2CCC(C)CC2)c(Cl)c1 [CN570]

EC50 ([1]; Table 2, OPC differentiation): 0.34 µM
Structure (SMILES): Fc1cc(Cl)ccc1OC[C@@H]1CCCN2CCCC[C@H]12 [CN566]
